BigSolDB 2.1

CC(C)(C)C(=O)C(Oc1ccc(Cl)cc1)n1ccnc1 (centres undefined)
solubility (mole fraction)
Details	278.15 K	283.15 K	288.15 K	293.15 K	298.15 K	303.15 K	308.15 K	313.15 K	318.15 K
in ethanol	0.0801	0.0952	0.112	0.133	0.159	0.184	0.215	0.249	0.287
in n-butanol	0.0804	0.0957	0.112	0.132	0.156	0.18	0.209	0.243	0.282
in n-heptanol	0.0686	0.0797	0.0937	0.111	0.131	0.152	0.18	0.21	0.245
in n-hexanol	0.073	0.0858	0.0999	0.119	0.141	0.164	0.192	0.223	0.263
in n-pentanol	0.0781	0.0912	0.107	0.127	0.15	0.174	0.204	0.238	0.273
in n-propanol	0.0842	0.0998	0.117	0.139	0.165	0.19	0.22	0.254	0.29
